Columns and labels:
Type in all cases: in vivo
[1] = tested on: pigweed (Amaranthus retroflexus); assay: Test A postemergence
How it was run: (§1)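 Visual injury, scored on a 0–100 scale relative to untreated controls, was recorded about 10 d after application. Treatments were a preemergence soil spray over planted seeds or a postemergence spray on plants at the one- to two-leaf stage, 2 to 10 cm tall, all in loam soil–sand blend in the greenhouse.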

[2] = tested on: ragweed (common ragweed, Ambrosia elatior); assay: Test A postemergence
How it was run: as §1

[3] = tested on: blackgrass (Alopecurus myosuroides); assay: Test A postemergence
How it was run: as §1

[4] = tested on: wheat (Triticum aestivum); assay: Test A postemergence
How it was run: as §1

Kochia (Kochia scoparia) [5] = assay: Test A postemergence
How it was run: as §1

[6] = tested on: giant foxtail (Setaria faberii); assay: Test A postemergence
How it was run: as §1

[7] = tested on: ryegrass, Italian (Italian ryegrass, Lolium multiflorum); assay: Test A postemergence
How it was run: as §1

corn (Zea mays) = assay: Test A postemergence
How it was run: as §1

[8] = tested on: Galium (catchweed bedstraw, Galium aparine); assay: Test A postemergence
How it was run: as §1

[9] = tested on: barnyardgrass (Echinochloa crus-galli); assay: Test A postemergence
How it was run: as §1

[10] = tested on: pigweed (Amaranthus retroflexus); assay: Test A preemergence; settings: Preemergence
[11] = tested on: ragweed (common ragweed, Ambrosia elatior); assay: Test A preemergence; settings: Preemergence
How it was run: as §1

Kochia (Kochia scoparia) [12] = assay: Test A preemergence; settings: Preemergence
How it was run: as §1

[13] = tested on: giant foxtail (Setaria faberii); assay: Test A preemergence; settings: Preemergence
How it was run: as §1

[14] = tested on: ryegrass, Italian (Italian ryegrass, Lolium multiflorum); assay: Test A preemergence; settings: Preemergence
How it was run: as §1

[15] = tested on: barnyardgrass (Echinochloa crus-galli); assay: Test A preemergence; settings: Preemergence
How it was run: as §1

[16] = tested on: sedge, umbrella (small-flower umbrella sedge, Cyperus difformis); assay: Test B flooded paddy test; settings: Flood, 250 g ai/ha; 0 to 100 scale where 0 is no effect and 100 is complete control; 13 to 15 d
How it was run: (§2)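 Percent control, visually estimated after 13–15 d in the greenhouse on a 0–100 basis, compares treated pots with untreated ones; compound was put into paddy water 3 cm above the soil when plants had two leaves.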

[17] = tested on: ducksalad (Heteranthera limosa); assay: Test B flooded paddy test; settings: Flood, 250 g ai/ha; 0 to 100 scale where 0 is no effect and 100 is complete control; 13 to 15 d
How it was run: as §2

rice (Oryra sativa) = assay: Test B flooded paddy test; settings: Flood, 250 g ai/ha; 0 to 100 scale where 0 is no effect and 100 is complete control; 13 to 15 d
How it was run: as §2

[18] = tested on: barnyardgrass (Echinochloa crus-galli); assay: Test B flooded paddy test; settings: Flood, 250 g ai/ha; 0 to 100 scale where 0 is no effect and 100 is complete control; 13 to 15 d
How it was run: as §2

[19] = 125 g ai/ha, postemergence, visual rating after approx. 10 d, 0 to 100 scale (0 no effect, 100 complete control)
[20] = Postemergence, 500 g ai/ha, 0 to 100 scale where 0 is no effect and 100 is complete control
[21] = 125 g ai/ha, visual injury after approximately 10 d, 0 to 100 scale where 0 is no effect and 100 is complete control
[22] = 500 g ai/ha, visual injury approx. 10 d

**Q.** For O=C1NCC(c2cccc(C(F)(F)F)c2F)C1C(=O)Nc1cccc(F)c1F (stereo not drawn) [Compound 591], which “Plant response rating, Pigweed” value [1, 19] is on record?
**A.** 20

**Q.** And the “Plant response rating, Pigweed” value [1, 20]?
**A.** 70

**Q.** What about the “Plant response rating, Ragweed” value [2, 19] of the same compound?
**A.** 0

**Q.** What about the “Plant response rating, Ragweed” value [2, 20] of the same compound?
**A.** 30

**Q.** What about the “Plant response rating, Blackgrass” value [3, 19] of the same compound?
**A.** 50

**Q.** And the “Plant response rating, Blackgrass” value [3, 20]?
**A.** 60

**Q.** What about the “Plant response rating, Wheat” value [4, 19] of the same compound?
**A.** 50

**Q.** What about the “Plant response rating, Wheat” value [4, 20] of the same compound?
**A.** 60

**Q.** And the “Plant response rating, Kochia” value (Kochia (Kochia scoparia) [5]; [19])?
**A.** 20

**Q.** And the “Plant response rating, Kochia” value (Kochia (Kochia scoparia) [5]; [20])?
**A.** 60

**Q.** And the “Plant response rating, Foxtail, Giant” value [6, 19]?
**A.** 90

**Q.** And the “Plant response rating, Foxtail, Giant” value [6, 20]?
**A.** 90

**Q.** And the “Plant response rating, Ryegrass, Italian” value [7, 19]?
**A.** 0

**Q.** And the “Plant response rating, Ryegrass, Italian” value [7, 20]?
**A.** 70

**Q.** What about the “Plant response rating, Corn” value (corn (Zea mays); [19]) of the same compound?
**A.** 70

**Q.** What about the “Plant response rating, Corn” value (corn (Zea mays); [20]) of the same compound?
**A.** 80

**Q.** And the “Plant response rating, Galium” value [8, 19]?
**A.** 40

**Q.** What about the “Plant response rating, Galium” value [8, 20] of the same compound?
**A.** 50

**Q.** What about the “Plant response rating, Barnyardgrass” value [9, 19] of the same compound?
**A.** 90

**Q.** And the “Plant response rating, Barnyardgrass” value [9, 20]?
**A.** 90

**Q.** What about the “Plant response rating, Pigweed” value [10, 21] of the same compound?
**A.** 0

**Q.** And the “Pigweed plant response rating (0 to 100 scale, 0 is no effect, 100 is complete control)” value [10, 22]?
**A.** 40

**Q.** What about the “Plant response rating, Ragweed” value [11, 21] of the same compound?
**A.** 0

**Q.** What about the “Ragweed plant response rating (0 to 100 scale, 0 is no effect, 100 is complete control)” value [11, 22] of the same compound?
**A.** 60

**Q.** And the “Plant response rating, Kochia” value (Kochia (Kochia scoparia) [12]; [21])?
**A.** 30

**Q.** And the “Kochia plant response rating (0 to 100 scale, 0 is no effect, 100 is complete control)” value (Kochia (Kochia scoparia) [12]; [22])?
**A.** 60

**Q.** And the “Plant response rating, Foxtail, Giant” value [13, 21]?
**A.** 90

**Q.** And the “Foxtail, Giant plant response rating (0 to 100 scale, 0 is no effect, 100 is complete control)” value [13, 22]?
**A.** 90

**Q.** What about the “Plant response rating, Ryegrass, Italian” value [14, 21] of the same compound?
**A.** 20

**Q.** What about the “Ryegrass, Italian plant response rating (0 to 100 scale, 0 is no effect, 100 is complete control)” value [14, 22] of the same compound?
**A.** 60

**Q.** What about the “Plant response rating, Barnyardgrass” value [15, 21] of the same compound?
**A.** 90

**Q.** What about the “Barnyardgrass plant response rating (0 to 100 scale, 0 is no effect, 100 is complete control)” value [15, 22] of the same compound?
**A.** 90

**Q.** What about the “Plant response rating, Sedge, Umbrella” value [16] of the same compound?
**A.** 0

**Q.** What about the “Plant response rating, Ducksalad” value [17] of the same compound?
**A.** 100

**Q.** What about the “Plant response rating, Rice” value (rice (Oryra sativa)) of the same compound?
**A.** 35

**Q.** And the “Plant response rating, Barnyardgrass” value [18]?
**A.** 65

— patent US12077503B2, “Substituted cyclic amides and their use as herbicides” (FMC CORPORATION, priority 2015, dated 2024)
